Reference: the supplement of paper PMC11061612

How the values were obtained:
Assay in all cases: combination Emax (second highest fraction inhibited in the dose matrix, 72 h); higher = more inhibition; extreme values may be limits of the assay
[1] = system: GA-10 (Burkitt's Lymphoma)
Summary of the method: (§1)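 After 24 hours at 37°C and 5% CO2 in 1536-well plates, cells in DMEM/F12 or RPMI plus 10% FBS received two-drug dose matrices for 72 hours. Viability came from CellTiter-Glo 2.0 luminescence and was scaled as inhibition, anchored at 0 by vehicle wells and at 1 by blank wells. Combination Emax is taken as the second-highest inhibition in the matrix, and Bliss excess as the observed combination effect less EA + EB − EA·EB, with EA and EB the single-agent effects.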

[2] = system: HCC70 (Breast Carcinoma)
Summary of the method: as §1

[3] = system: JVM-2 (B-Cell Non-Hodgkin's Lymphoma)
Summary of the method: as §1

[4] = system: A2780 (Ovarian Carcinoma)
Summary of the method: as §1

[5] = system: LS-411N (Colorectal Carcinoma)
Summary of the method: as §1

[6] = system: KYSE-220 (Esophageal Squamous Cell Carcinoma)
Summary of the method: as §1

[7] = system: CAL-27 (Oral Cavity Carcinoma)
Summary of the method: as §1

[8] = system: JHU-022 (Oral Cavity Carcinoma)
Summary of the method: as §1

[9] = system: DU-4475 (Breast Carcinoma)
Summary of the method: as §1

[10] = system: NCI-H716 (Colorectal Carcinoma)
Summary of the method: as §1

[11] = system: LU-165 (Small Cell Lung Carcinoma)
Summary of the method: as §1

[12] = system: WM1552C (Melanoma)
Summary of the method: as §1

[13] = system: HCC1395 (Breast Carcinoma)
Summary of the method: as §1

[14] = system: GCT (Other Solid Carcinomas)
Summary of the method: as §1

[15] = system: EB2 (Burkitt's Lymphoma)
Summary of the method: as §1

[16] = system: KYSE-140 (Esophageal Squamous Cell Carcinoma)
Summary of the method: as §1

[17] = system: NCI-H2087 (Lung Adenocarcinoma)
Summary of the method: as §1

[18] = system: 769-P (Kidney Carcinoma)
Summary of the method: as §1

[19] = system: CGTH-W-1 (Thyroid Gland Carcinoma)
Summary of the method: as §1

[20] = system: UACC-812 (Breast Carcinoma)
Summary of the method: as §1

| SMILES | combination Emax [1] | combination Emax [2] | combination Emax [3] | combination Emax [4] | combination Emax [5] | combination Emax [6] | combination Emax [7] | combination Emax [8] | combination Emax [9] | combination Emax [10] | combination Emax [11] | combination Emax [12] | combination Emax [13] | combination Emax [14] | combination Emax [15] | combination Emax [16] | combination Emax [17] | combination Emax [18] | combination Emax [19] | combination Emax [20] |
| --- | --- | --- | --- | --- | --- | --- | --- | --- | --- | --- | --- | --- | --- | --- | --- | --- | --- | --- | --- | --- |
| CC(=O)c1c(C)c2cnc(Nc3ccc(N4CCNCC4)cn3)nc2n(C2CCCC2)c1=O [Palbociclib] + Cn1cnc2c(F)c(Nc3ccc(Br)cc3Cl)c(C(=O)NOCCO)cc21 [Selumetinib] (first compound max 10 µM, 7x7, partner max 10 µM) | 0.941 | 0.269 | 0.774 | 0.825 | 0.715 | 0.66 | 0.627 | 0.54 | 1 | 0.539 | 0.0618 | 0.47 | 0.0651 | 0.405 | 0.492 | 0.188 | 0.501 | 0.809 | 0.14 |  |
| CC(=O)c1c(C)c2cnc(Nc3ccc(N4CCNCC4)cn3)nc2n(C2CCCC2)c1=O [Palbociclib] + Cc1c2c(nn1C)CSCc1cc(n(C)n1)CSc1cc(c3ccccc3c1)OCCCc1c(C(=O)O)n(C)c3c-2c(Cl)ccc13 [AZD5991] (first compound max 10 µM, 7x7, partner max 1 µM) | 0.975 | 0.867 | 0.704 | 0.912 | 0.347 | 0.305 | 0.914 | 0.167 | 0.231 | 0.356 | 0.167 | 0.638 | 0.419 | 0.395 | 0.518 | 0.301 | 0.218 | 0.786 | 0.176 |  |
| CS(=O)(=O)CCNCc1ccc(-c2ccc3ncnc(Nc4ccc(OCc5cccc(F)c5)c(Cl)c4)c3c2)o1 [Lapatinib] + NC1(c2ccc(-c3nc4ccn5c(=O)[nH]nc5c4cc3-c3ccccc3)cc2)CCC1 [MK-2206] (first compound max 10 µM, 7x7, partner max 10 µM) |  | 0.923 |  | 0.909 | 0.295 | 0.981 |  | 0.663 | 0.983 |  | 0.453 | 0.767 | 0.969 |  | 0.834 |  | 0.293 | 0.978 | 0.894 |  |
| NC1(C(=O)N[C@@H](CCO)c2ccc(Cl)cc2)CCN(c2ncnc3[nH]ccc23)CC1 [Capivasertib] + C[C@@H]1COCCN1C2=NC(=NC(=C2)C3(CC3)[S@](=N)(=O)C)C4=C5C=CNC5=NC=C4 [AZD6738] (first compound max 10 µM, 7x7, partner max 10 µM) | 1 | 0.817 | 0.864 | 0.86 | 0.751 | 0.869 | 0.58 | 0.631 | 0.987 | 0.555 | 0.657 | 0.651 | 0.581 | 0.673 | 0.831 | 0.867 | 0.486 | 0.88 | 0.398 |  |
| CCc1c2c(nc3ccc(O)cc13)-c1cc3c(c(=O)n1C2)COC(=O)[C@]3(O)CC [SN-38] + O=C(c1cc(Cc2n[nH]c(=O)c3ccccc23)ccc1F)N1CCN(C(=O)C2CC2)CC1 [Olaparib] (first compound max 0.3 µM, 7x7, partner max 10 µM) |  | 0.455 | 0.934 | 0.777 | 0.304 | 0.99 |  | 0.764 | 0.942 |  | 0.478 | 0.609 | 0.518 | 0.753 | 0.932 |  | 0.909 | 0.734 | 0.768 | 0.504 |
| O=C(c1cc(Cc2n[nH]c(=O)c3ccccc23)ccc1F)N1CCN(C(=O)C2CC2)CC1 [Olaparib] + COc1nnc2ccc(N3CCC(c4ccc(OCCN5CCN(C)C(=O)[C@H]5C)cc4)CC3)nn12 [AZD5153] (first compound max 10 µM, 7x7, partner max 1 µM) |  | 0.281 |  | 0.774 |  | 0.558 |  | 0.35 |  |  | 0.373 | 0.376 | 0.426 |  | 0.484 |  | 0.39 | 0.709 | 0.218 | 0.376 |
| CN(CCO)CC[C@H](CSc1ccccc1)Nc1ccc(S(=O)(=O)NC(=O)c2ccc(N3CCC([C@@H](O)c4ccccc4-c4ccc(Cl)cc4)CC3)cc2)cc1S(=O)(=O)C(F)(F)F [AZD4320] + CS(=O)(=O)CCNCc1ccc(-c2ccc3ncnc(Nc4ccc(OCc5cccc(F)c5)c(Cl)c4)c3c2)o1 [Lapatinib] (first compound max 1 µM, 7x7, partner max 10 µM) |  | 0.93 |  | 0.492 |  | 0.967 |  | 0.784 |  |  | 0.943 | 0.571 | 0.96 |  | 0.293 |  | 0.541 | 0.989 | 0.273 | 0.616 |
